Test results as given in US20200055848A1, “FURANONE DERIVATES AND METHODS OF USE THEREOF” (CARNA BIOSCIENCES, INC., priority 2016, published 2020).
Where a name gives a salt, the structure may show the parent alone.

Experiments:
[1] = target: T1, human Cdc7/human ASK complex protein (Homo sapiens, UniProt O00311); experiment: Cdc7/ASK enzymatic assay; type: biochemical; conditions: 5 μM ATP; for IC50: mean of duplicated assays, read-out: Cdc7 IC50; for Cdc7 inhibitory potency (in words): compared with compound 3
T1 construct: purchased Carna Biosciences, Inc
Description: Measurement of Cdc7 kinase activity was carried out using MSA assay kit (QuickScout™ Screening Assist Kit, Carna Biosciences, Inc.). Assay buffer (20 mM HEPES, 0.01% Triton X-100™, 2 mM dithiothreitol, pH 7.5) was used to prepare a substrate mixture solution comprising 4 μM of kinase-reaction substrate (FITC-labeled MCM2 peptide), 40 mM MgCl2, and 4 times concentrations of final targeted ATP (5, 100, and 1,000 μM). The enzyme supplied in the kit (human Cdc7/human ASK complex protein) was diluted into the assay buffer to prepare a 7 nM solution (enzyme solution). The compound stock solution was prepared by diluting a 10 mM DMSO solution into the assay buffer (final 4% DMSO). The kinase reaction was performed by mixing of 5 μL of the compound solution, 5 μL of the substrate mixture solution, and 10 μL of the enzyme solution in a 384-well plate. For the pre-incubation assay, the compound solution and the enzyme solution were pre-mixed and incubated at ambient temperature for 30 min before adding into the substrate mixture solution to start enzymatic reaction. After the reaction at 25° C. for 5 hours, 60 μL of the termination buffer (supplied in the kit) was added to stop the reaction. The phosphorylation of substrate was measured using a LabChip EZ Reader II system (Caliper Life Sciences). The percent inhibition (%) by a tested compound was calculated according to the following formula:
Percent inhibition (%)=(1−(C−A)/(B−A))×100
A represents P/(P+S) for a blank well, B represents P/(P+S) for a solvent well, and C represents P/(P+S) for a compound-added well. S: the peak heights of the separated substrate, P: phosphorylated substrate.
The IC50 value of tested compound was calculated by regression analysis of the percent inhibition values versus the (logarithmic) concentration of the tested compound.

[2] = In vitro metabolic stability, human liver microsomes; type: in vitro ADME; conditions: 30 min treatment of human liver microsomes
Description: (§1) NADPH regeneration system (13 mM NADP, 33 mM Glucose-6-phospate, 33 mM MgCl2, and 4 U/mL of Glucose-6-phosphate dehydrogenase) and liver microsomes (1 mg/mL of HLM (BD Gentest, lot 18888) or MLM (BD Gentest, lot 31197)) in 0.1 M phosphate buffer (pH 7.4) were pre-incubated separately at 37° C. for 20 min before mixing with 1:4 ratio. 50 μL of the mixed solution was added to 50 μL of the test compound (2 μM) to initiate the reaction at 37° C. (final conc. 1 μM test compound, 0.4 mg/mL liver microsomes, and 1.3 mM NADPH). After 30 min, the reactions were stopped by adding 300 μL of cold acetonitrile. For 0 min samples, ice-cold acetonitrile (with system suitability standard) was treated before mixing the test compound and microsomes. The sample were vortexed well and then centrifuged at 3500 rpm at 15° C. for 20 min. 110 μL of supernatant was mixed with 110 μL of water and quantitated by LC-MS/MS workstation (Shimazu Corp.).

[3] = In vitro metabolic stability, mouse liver microsomes; type: in vitro ADME; conditions: 30 min treatment of mouse liver microsomes
Description: as §1

T1 sequence (O00311 whole entry): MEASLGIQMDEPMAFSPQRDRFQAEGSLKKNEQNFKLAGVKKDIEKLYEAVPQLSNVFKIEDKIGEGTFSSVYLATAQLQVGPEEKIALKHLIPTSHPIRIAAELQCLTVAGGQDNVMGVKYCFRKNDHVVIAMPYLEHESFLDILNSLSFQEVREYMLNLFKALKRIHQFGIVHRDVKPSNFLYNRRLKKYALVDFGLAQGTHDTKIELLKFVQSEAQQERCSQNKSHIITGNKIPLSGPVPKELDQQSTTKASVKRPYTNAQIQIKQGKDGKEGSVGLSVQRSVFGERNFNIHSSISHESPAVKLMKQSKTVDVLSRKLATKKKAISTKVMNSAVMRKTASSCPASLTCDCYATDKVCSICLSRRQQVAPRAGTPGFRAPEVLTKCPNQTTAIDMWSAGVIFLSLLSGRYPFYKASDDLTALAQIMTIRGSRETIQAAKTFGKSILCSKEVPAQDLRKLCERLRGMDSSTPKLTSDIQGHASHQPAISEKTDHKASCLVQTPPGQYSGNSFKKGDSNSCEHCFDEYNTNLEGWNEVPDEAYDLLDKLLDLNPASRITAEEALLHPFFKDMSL
T1 sequence (Q9UBU7 whole entry partner): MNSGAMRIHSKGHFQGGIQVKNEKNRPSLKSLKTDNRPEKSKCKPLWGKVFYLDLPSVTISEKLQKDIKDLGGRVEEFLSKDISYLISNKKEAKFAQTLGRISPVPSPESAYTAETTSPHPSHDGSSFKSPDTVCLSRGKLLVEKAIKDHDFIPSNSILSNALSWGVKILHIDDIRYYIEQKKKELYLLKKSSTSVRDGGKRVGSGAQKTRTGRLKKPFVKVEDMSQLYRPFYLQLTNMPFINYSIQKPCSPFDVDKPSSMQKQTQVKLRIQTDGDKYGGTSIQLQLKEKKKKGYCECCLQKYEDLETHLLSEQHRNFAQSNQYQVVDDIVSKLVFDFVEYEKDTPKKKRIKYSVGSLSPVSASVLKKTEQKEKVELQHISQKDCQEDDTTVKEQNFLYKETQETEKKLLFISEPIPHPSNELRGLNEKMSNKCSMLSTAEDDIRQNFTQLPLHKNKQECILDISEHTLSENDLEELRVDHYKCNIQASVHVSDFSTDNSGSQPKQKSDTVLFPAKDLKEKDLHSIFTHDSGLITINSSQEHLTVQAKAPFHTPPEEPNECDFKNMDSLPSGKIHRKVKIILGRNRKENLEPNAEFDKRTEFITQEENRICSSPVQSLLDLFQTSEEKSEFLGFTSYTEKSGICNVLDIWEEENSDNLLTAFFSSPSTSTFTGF

SMILES	IC50 [1] [nM]	HLM % (remaining % of parent compound) [2] [%]	MLM % (remaining % of parent compound) [3] [%]	Cdc7 inhibitory potency (in words) [1]
O=C(O)C1=C(Nc2ccccc2)O/C(=C\c2c[nH]c3ncccc23)C1=O [Compound 9, 5-((1H-Pyrrolo[2,3-b]pyridin-3-yl)methylene)-4-oxo-2-(phenylamino)-4,5-dihydrofuran-3-carboxylic acid]	9.9			
CCOC(=O)C1=C(Nc2ccc(C)cc2C)OC(=Cc2c[nH]c3ncccc23)C1=O [Compound 24, Ethyl 5-((1H-pyrrolo[2,3-b]pyridin-3-yl)methylene)-2-((2,4-dimethylphenyl)amino)-4-oxo-4,5-dihydrofuran-3-carboxylate]	3.9	63	30	
CCOC(=O)C1=C(Nc2cccnc2)OC(=Cc2c[nH]c3ncccc23)C1=O [Compound 26, Ethyl 5-((1H-pyrrolo[2,3-b]pyridin-3-yl)methylene)-4-oxo-2-(pyridin-3-ylamino)-4,5-dihydrofuran-3-carboxylate]	8			
CCOC(=O)C1=C(Nc2ccncc2)OC(=Cc2c[nH]c3ncccc23)C1=O [Compound 27, Ethyl 5-((1H-pyrrolo[2,3-b]pyridin-3-yl)methylene)-4-oxo-2-(pyridin-4-ylamino)-4,5-dihydrofuran-3-carboxylate]	3.5			
CCNC(=O)C1=C(Nc2ccccc2)O/C(=C\c2c[nH]c3ncccc23)C1=O [Compound 11, 5-((1H-Pyrrolo[2,3-b]pyridin-3-yl)methylene)-N-ethyl-4-oxo-2-(phenylamino)-4,5-dihydrofuran-3-carboxamide]				significant decrease in potency
CCOC(=O)C1=C(Nc2ccc3cn[nH]c3c2)OC(=Cc2c[nH]c3ncccc23)C1=O [Compound 31, Ethyl 2-((1H-indazol-6-yl)amino)-5-((1H-pyrrolo[2,3-b]pyridin-3-yl)methylene)-4-oxo-4,5-dihydrofuran-3-carboxylate]	4			
CCOC(=O)C1=C(Nc2ccc3ncccc3c2)O/C(=C\c2c[nH]c3ncccc23)C1=O [Compound 30, Ethyl 5-((1H-pyrrolo[2,3-b]pyridin-3-yl)methylene)-4-oxo-2-(quinolin-6-ylamino)-4,5-dihydrofuran-3-carboxylate]	36			
CCOC(=O)C1=C(Nc2ccc(F)cc2F)OC(=Cc2c[nH]c3ncccc23)C1=O [Compound 23, Ethyl 5-((1H-pyrrolo[2,3-b]pyridin-3-yl)methylene)-2-((2,4-difluorophenyl)amino)-4-oxo-4,5-dihydrofuran-3-carboxylate]	2.5	57	12	
CCOC(=O)C1=C(Nc2ccccc2)SC(=Cc2c[nH]c3ncccc23)C1=O [Compound 4, Ethyl 5-((1H-pyrrolo[2,3-b]pyridin-3-yl)methylene)-4-oxo-2-(phenylamino)-4,5-dihydrothiophene-3-carboxylate]	> 10000			retention of some potency
CCOC(=O)C1=C(Nc2cncnc2)O/C(=C\c2c[nH]c3ncccc23)C1=O [Compound 28, Ethyl 5-((1H-pyrrolo[2,3-b]pyridin-3-yl)methylene)-4-oxo-2-(pyrimidin-5-ylamino)-4,5-dihydrofuran-3-carboxylate]	18			
NC(=O)C1=C(Nc2ccccc2)O/C(=C\c2c[nH]c3ncccc23)C1=O [Compound 10, 5-((1H-Pyrrolo[2,3-b]pyridin-3-yl)methylene)-4-oxo-2-(phenylamino)-4,5-dihydrofuran-3-carboxamide]	> 10000			significant decrease in potency
CCOC(=O)C1=C(NCCc2ccccc2)O/C(=C\c2c[nH]c3ncccc23)C1=O [Compound 33, Ethyl 5-((1H-pyrrolo[2,3-b]pyridin-3-yl)methylene)-4-oxo-2-(phenethylamino)-4,5-dihydrofuran-3-carboxylate hydrochloride]	30			some decrease in potency
CCOC(=O)C1=C(Nc2cc[nH]n2)O/C(=C\c2c[nH]c3ncccc23)C1=O [Compound 29, Ethyl 2-((1H-pyrazol-3-yl)amino)-5-((1H-pyrrolo[2,3-b]pyridin-3-yl)methylene)-4-oxo-4,5-dihydrofuran-3-carboxylate]	10			
CCOC(=O)C1=C(NCc2ccccc2)O/C(=C\c2c[nH]c3ncccc23)C1=O [Compound 32, Ethyl 5-((1H-pyrrolo[2,3-b]pyridin-3-yl)methylene)-2-(benzylamino)-4-oxo-4,5-dihydrofuran-3-carboxylate hydrochloride]	23			some decrease in potency
CCOC(=O)C1=C(Nc2ccccn2)OC(=Cc2c[nH]c3ncccc23)C1=O [Compound 25, Ethyl 5-((1H-pyrrolo[2,3-b]pyridin-3-yl)methylene)-4-oxo-2-(pyridin-2-ylamino)-4,5-dihydrofuran-3-carboxylate]	30			

More lines, now with the values ahead:

IC50 [1] [nM]	HLM % (remaining % of parent compound) [2] [%]	MLM % (remaining % of parent compound) [3] [%]	Cdc7 inhibitory potency (in words) [1]	SMILES
1200				CCOC(=O)C1=C(Nc2ccccc2)OC(=Cc2ccc(O)c(C)c2)C1=O [Compound 6, Ethyl 5-(4-hydroxy-3-methylbenzylidene)-4-oxo-2-(phenylamino)-4,5-dihydrofuran-3-carboxylate]
6.7				CCOC(=O)C1=C(Nc2ccc(Cl)cc2)OC(=Cc2c[nH]c3ncccc23)C1=O [Compound 15, Ethyl 5-((1H-pyrrolo[2,3-b]pyridin-3-yl)methylene)-2-((4-chlorophenyl)amino)-4-oxo-4,5-dihydrofuran-3-carboxylate]
3200				CCOC(=O)C1=C(Nc2ccccc2)OC(=Cc2ccc3c(c2)OCO3)C1=O [Compound 7, Ethyl 5-(benzo[d][1,3]dioxol-5-ylmethylene)-4-oxo-2-(phenylamino)-4,5-dihydrofuran-3-carboxylate]
3.8	53	24		CCOC(=O)C1=C(Nc2ccccc2C)OC(=Cc2c[nH]c3ncccc23)C1=O [Compound 21, Ethyl 5-((1H-pyrrolo[2,3-b]pyridin-3-yl)methylene)-4-oxo-2-(o-tolylamino)-4,5-dihydrofuran-3-carboxylate]
44				CCOC(=O)C1=C(Nc2ccccc2)OC(=Cc2c[nH]c3ncc(Cl)cc23)C1=O [Compound 5, Ethyl 5-((5-chloro-1H-pyrrolo[2,3-b]pyridin-3-yl)methylene)-4-oxo-2-(phenylamino)-4,5-dihydrofuran-3-carboxylate]
12				CCOC(=O)C1=C(Nc2ccccc2OC)OC(=Cc2c[nH]c3ncccc23)C1=O [Compound 16, Ethyl 5-((1H-pyrrolo[2,3-b]pyridin-3-yl)methylene)-2-((2-methoxyphenyl)amino)-4-oxo-4,5-dihydrofuran-3-carboxylate]
29				CCOC(=O)C1=C(Nc2cccc(OC)c2)OC(=Cc2c[nH]c3ncccc23)C1=O [Compound 17, Ethyl 5-((1H-pyrrolo[2,3-b]pyridin-3-yl)methylene)-2-((3-methoxyphenyl)amino)-4-oxo-4,5-dihydrofuran-3-carboxylate]
4.3	52	25		CCOC(=O)C1=C(Nc2ccc(F)cc2)OC(=Cc2c[nH]c3ncccc23)C1=O [Compound 20, Ethyl 5-((1H-pyrrolo[2,3-b]pyridin-3-yl)methylene)-2-((4-fluorophenyl)amino)-4-oxo-4,5-dihydrofuran-3-carboxylate]
5.9				CCOC(=O)C1=C(Nc2ccc(C)cc2)OC(=Cc2c[nH]c3ncccc23)C1=O [Compound 22, Ethyl 5-((1H-pyrrolo[2,3-b]pyridin-3-yl)methylene)-4-oxo-2-(p-tolylamino)-4,5-dihydrofuran-3-carboxylate]
12				CCOC(=O)C1=C(Nc2cccc(Cl)c2)OC(=Cc2c[nH]c3ncccc23)C1=O [Compound 14, Ethyl 5-((1H-pyrrolo[2,3-b]pyridin-3-yl)methylene)-2-((3-chlorophenyl)amino)-4-oxo-4,5-dihydrofuran-3-carboxylate]
